The format of series [1] is physicochemical. The method, then:
In order to investigate applicability of the compound (o) obtained in Example 7-c to a wet process, a solubility test of the compound in various solvents was conducted. In addition, a solubility test of pentacene was also conducted as reference.
Specifically, 20 mg of a sample was weighed and it was visually judged whether it dissolves in 10 g of a solvent at room temperature (0.2% by weight).

Here are results for four compounds from patent US9087996B2, “Fluorine-containing aromatic compound and production method thereof” (Asahi Glass Company, Limited, priority 2012, dated 2015).

As a reminder, the melting point is the temperature of the solid-liquid transition.

Molecules are shown by their SMILES.

Consider `COc1ccc(C#Cc2ccc3c(C(F)(F)F)c4ccccc4c(C(F)(F)F)c3c2)cc1` [Compound (a1), 2-[(4-methoxyphenyl)ethynyl]-9,10-bis(trifluoromethyl)anthracene], for which the melting point lay within 123.5 to 124.1 °C.

Compound `FC(F)(F)c1c2ccc(C#Cc3ccccc3)cc2c(C(F)(F)F)c2ccc(C#Cc3ccccc3)cc12` [Compound (b1), 2,6-bis(phenylethynyl)-9,10-bis(trifluoromethyl)anthracene] displayed a melting point of 215 to 215.5 °C.

Turning to `FC(F)(F)c1c2cc3ccccc3cc2c(C(F)(F)F)c2cc3ccccc3cc12` [Compound (o)], in series [1], the “Solubility in Chloroform” value was “Yes”, the “Solubility in Cyclohexane” value is listed as “Yes”, the “Solubility in Hexane” value is “Yes” and the “Solubility in THF” value was “Yes”. For the same compound, in series [1], the “Solubility in Toluene” value is on record as “Yes” and the “Solubility in o-Dichlorobenzene” value is given as “Yes”.

Regarding `c1ccc2cc3cc4cc5ccccc5cc4cc3cc2c1` [Pentacene, pentacene, reference compound], in series [1], the “Solubility in Chloroform” value is “No”, the “Solubility in Cyclohexane” value was “No”, the “Solubility in Hexane” value is given as “No” and the “Solubility in THF” value was “No”. In series [1], the “Solubility in Toluene” value is on record as “No” and the “Solubility in o-Dichlorobenzene” value is on record as “No”.
